Data as given in patent US10570179B2, “Substituted urea depsipeptide analogs as activators of the CLPP endopeptidase” (priority 2016, dated 2020).
Numbered stars: 1 amine (or outer) side, 2 acyl side, 3 side chain; on linkers, the order of the positions; unused ones are H or OH. Bridge positions count the residues as written; N and C are the ends. Square brackets hold non-standard residues; d marks the D form. Peptide text beside a SMILES is read from it. * marks the point of attachment. ξ: configuration not given here. Piperazine(2S-CO,4-Me) = CN1CCN[C@H](C(=O)O)C1; Phe(3-OMe) = COc1cccc(C[C@H](N)C(=O)O)c1; Morpholine(3S-CO) = O=C(O)[C@@H]1COCCN1; Phe(3-Me) = Cc1cccc(C[C@H](N)C(=O)O)c1; NH(4-Cl-2-F-phenyl) = Fc1cc(Cl)ccc1N*; Pro(4R-Me) = C[C@H]1CN[C@H](C(=O)O)C1; Propanoyl(3-NMe2) = CN(C)CCC(=O)*; X1 = O=C([C@@H]1CSCCN1[*:1])[*:2]; Hyp = O=C(O)[C@@H]1C[C@@H](O)CN1; NH(4-Et-phenyl) = CCc1ccc(N*)cc1; NH(4-Me-phenyl) = Cc1ccc(N*)cc1; ξNMeThr = CNC(C(=O)O)[C@@H](C)O; aThr = C[C@H](O)[C@H](N)C(=O)O; Pip = O=C(O)[C@@H]1CCCCN1; X3 = c1cc2c(cc1N*)OCCO2; CO = O=C([*:1])[*:2]; X2 = Fc1cc(N*)ccc1Cl

Key:
[1] = Plasma protein binding, rapid equilibrium dialysis; format: in vitro ADME, mouse
[2] = Microsomal metabolic stability; format: in vitro ADME, human
[3] = plasma binding, % Bound, mouse plasma
[4] = microsomal metabolic stability half-life, human liver microsomes

| SMILES | Mouse ([1]; mouse, 4 h, 10 μM, pH 7.4) [%] | Human ([2]; human, pH 7.4) | Mouse [1, 3] [%] | Human [2, 4] |
| --- | --- | --- | --- | --- |
| Cc1cccc(C[C@H](NC(=O)Nc2ccc(Cl)c(F)c2)C(=O)N[C@H]2COC(=O)[C@@H]3C[C@@H](C)CN3C(=O)[C@H](C)NC(=O)[C@@H]3CN(C)CCN3C(=O)[C@@H]3CCCN3C2=O)c1 [Compound 14, (S)-2-(3-(4-CHLORO-3-FLUOROPHENYL)UREIDO)-3-(M-TOLYL)-N-((6AS,12S,15AS,17R,21S,23AS)-2,17,21-TRIMETHYL-6,11,15,20,23-PENTAOXOOCTADECAHYDRO-2H,6H,11H,15H-PYRAZINO[2,1-I]DIPYRROLO[2,1-C:2′,1′-L][1]OXA[4,7,10,13]TETRAAZACYCLOHEXADECIN-12-YL)PROPANAMIDE] ({X2-CO}-[Phe(3-Me)]SP[Piperazine(2S-CO,4-Me)]A[Pro(4R-Me)]; ester 2-C) | 98.9 ± 0.1 | 0.73 ± 0.07 h | – | – |
| COc1cccc(C[C@H](NC(=O)Nc2ccc(Cl)cc2F)C(=O)N[C@H]2COC(=O)[C@@H]3C[C@@H](C)CN3C(=O)[C@H](C)NC(=O)[C@@H]3CN(C)CCN3C(=O)[C@@H]3CCCN3C2=O)c1 [Compound 19, (S)-2-(3-(4-CHLORO-2-FLUOROPHENYL)UREIDO)-3-(3-METHOXYPHENYL)-N-((6AS,12S,15AS,17R,21S,23AS)-2,17,21-TRIMETHYL-6,11,15,20,23-PENTAOXOOCTADECAHYDRO-2H,6H,11H,15H-PYRAZINO[2,1-I]DIPYRROLO[2,1-C:2′,1′-L][1]OXA[4,7,10,13]TETRAAZACYCLOHEXADECIN-12-YL)PROPANAMIDE] ({NH(4-Cl-2-F-phenyl)-CO}-[Phe(3-OMe)]SP[Piperazine(2S-CO,4-Me)]A[Pro(4R-Me)]; ester 2-C) | 98.3 ± 0.1 | 0.61 ± 0.06 h | – | – |
| Cc1ccc(NC(=O)N[C@@H](Cc2cccc(C)c2)C(=O)N[C@H]2COC(=O)[C@@H]3CCCN3C(=O)[C@H](C)NC(=O)[C@@H]3CCCCN3C(=O)[C@@H]3C[C@@H](O)CN3C2=O)cc1 [Compound 49, (S)—N-((6S,8AS,14AS,16R,20S,23AS)-16-HYDROXY-6-METHYL-5,8,14,19,23-PENTAOXOOCTADECAHYDRO-1H,5H,14H,19H-PYRIDO[2,1-I]DIPYRROLO[2,1-C:2′,1′-L][1]OXA[4,7,10,13]TETRAAZACYCLOHEXADECIN-20-YL)-3-(M-TOLYL)-2-(3-(P-TOLYL)UREIDO)PROPANAMIDE] | – | – | 99.4 ± 9.4 | 0.81 ± .813 h |
| Cc1cccc(C[C@H](NC(=O)Nc2ccc(Cl)cc2F)C(=O)N[C@H]2COC(=O)[C@@H]3C[C@@H](C)CN3C(=O)[C@H](C)NC(=O)[C@@H]3CCCCN3C(=O)[C@@H]3C[C@@H](O)CN3C2=O)c1 [Compound 10] | 99.7 ± 0.0 | 0.29 ± 0.04 h | – | – |
| Cc1ccc(NC(=O)N[C@@H](Cc2cccc(C)c2)C(=O)N[C@@H]2C(=O)N3CCC[C@H]3C(=O)N3CCCC[C@H]3C(=O)N[C@@H](C)C(=O)N3C[C@H](C)C[C@H]3C(=O)O[C@H]2C)cc1 [Compound 1, (S)-3-(M-TOLYL)-2-(3-(P-TOLYL)UREIDO)-N-((2R,6S,8AS,14AS,20S,21S,23AS)-2,6,21-TRIMETHYL-5,8,14,19,23-PENTAOXOOCTADECAHYDRO-1H,5H,14H,19H-PYRIDO[2,1-I]DIPYRROLO[2,1-C:2′,1′-L][1]OXA[4,7,10,13]TETRAAZACYCLOHEXADECIN-20-YL)PROPANAMIDE] ({NH(4-Me-phenyl)-CO}-[Phe(3-Me)][aThr]P[Pip]A[Pro(4R-Me)]; ester 2-C) | – | – | 98.9 | 11.45 h |
| Cc1ccc(NC(=O)N[C@@H](Cc2cccc(C)c2)C(=O)N[C@H]2COC(=O)[C@@H]3C[C@@H](C)CN3C(=O)[C@H](C)NC(=O)[C@@H]3CN(C)CCN3C(=O)[C@@H]3CCCN3C2=O)cc1 [Compound 15, (S)-3-(M-TOLYL)-2-(3-(P-TOLYL)UREIDO)-N-((6AS,12S,15AS,17R,21S,23AS)-2,17,21-TRIMETHYL-6,11,15,20,23-PENTAOXOOCTADECAHYDRO-2H,6H,11H,15H-PYRAZINO[2,1-I]DIPYRROLO[2,1-C:2′,1′-L][1]OXA[4,7,10,13]TETRAAZACYCLOHEXADECIN-12-YL)PROPANAMIDE] ({NH(4-Me-phenyl)-CO}-[Phe(3-Me)]SP[Piperazine(2S-CO,4-Me)]A[Pro(4R-Me)]; ester 2-C) | – | – | 77.0 ± 6.1 | 0.67 ± 0.04 h |
| Cc1cccc(C[C@H](NC(=O)Nc2ccc(Cl)cc2F)C(=O)N[C@@H]2C(=O)N3CCC[C@H]3C(=O)N3CCSC[C@H]3C(=O)N[C@@H](C)C(=O)N3C[C@H](C)C[C@H]3C(=O)O[C@H]2C)c1 [Compound 38, (S)-2-(3-(4-CHLORO-2-FLUOROPHENYL)UREIDO)-3-(M-TOLYL)-N-((6AS,12S,13S,15AS,17R,21S,23AR)-13,17,21-TRIMETHYL-6,11,15,20,23-PENTAOXOOCTADECAHYDRO-6H,11H,15H-DIPYRROLO[2,1-C:2′,1′-L][1,4]THIAZINO[3,4-I][1]OXA[4,7,10,13]TETRAAZACYCLOHEXADECIN-12-YL)PROPANAMIDE] ({NH(4-Cl-2-F-phenyl)-CO}-[Phe(3-Me)][aThr]P[X1]A[Pro(4R-Me)]; ester 2-C) | 96.0 ± 6.0 | 1.00 ± .003 h | – | – |
| Cc1cccc(C[C@H](NC(=O)Nc2ccc3c(c2)OCCO3)C(=O)N[C@@H]2C(=O)N3C[C@H](O)C[C@H]3C(=O)N3CCOC[C@H]3C(=O)N[C@@H](C)C(=O)N3C[C@H](C)C[C@H]3C(=O)O[C@H]2C)c1 [Compound 27, (S)-2-(3-(2,3-DIHYDROBENZO[B][1,4]DIOXIN-6-YL)UREIDO)-N-((6AS,8R,12S,13S,15AS,17R,21S,23AS)-8-HYDROXY-13,17,21-TRIMETHYL-6,11,15,20,23-PENTAOXOOCTADECAHYDRO-6H,11H,15H-[1,4]OXAZINO[3,4-I]DIPYRROLO[2,1-C:2′,1′-L][1]OXA[4,7,10,13]TETRAAZACYCLOHEXADECIN-12-YL)-3-(M-TOLYL)PROPANAMIDE] ({X3-CO}-[Phe(3-Me)][aThr][Hyp][Morpholine(3S-CO)]A[Pro(4R-Me)]; ester 2-C) | 93.2 ± 3.2 | 0.49 ± .495 h | – | – |
| Cc1cccc(C[C@H](NC(=O)Nc2ccc(Cl)c(F)c2)C(=O)N[C@@H]2C(=O)N3CCC[C@H]3C(=O)N3CCCC[C@H]3C(=O)N[C@@H](C)C(=O)N3C[C@H](C)C[C@H]3C(=O)O[C@H]2C)c1 [Compound 35, (S)-2-(3-(4-CHLORO-3-FLUOROPHENYL)UREIDO)-3-(M-TOLYL)-N-((2R,6S,8AS,14AS,20S,21S,23AS)-2,6,21-TRIMETHYL-5,8,14,19,23-PENTAOXOOCTADECAHYDRO-1H,5H,14H,19H-PYRIDO[2,1-I]DIPYRROLO[2,1-C:2′,1′-L][1]OXA[4,7,10,13]TETRAAZACYCLOHEXADECIN-20-YL)PROPANAMIDE] ({X2-CO}-[Phe(3-Me)][aThr]P[Pip]A[Pro(4R-Me)]; ester 2-C) | 99.7 ± 9.7 | 1.14 ± .145 h | – | – |
| Cc1cccc(C[C@H](NC(=O)Nc2ccc(Cl)cc2F)C(=O)N[C@@H]2C(=O)N3CCC[C@H]3C(=O)N(C)C([C@@H](C)O)C(=O)N[C@@H](C)C(=O)N3C[C@H](C)C[C@H]3C(=O)O[C@H]2C)c1 (stereo partly drawn) [Compound 5] ({NH(4-Cl-2-F-phenyl)-CO}-[Phe(3-Me)][aThr]P[ξNMeThr]A[Pro(4R-Me)]; ester 2-C) | 98.6 ± 0.5 | 0.31 ± 0.03 h | – | – |
| Cc1cccc(C[C@H](NC(=O)Nc2ccc3c(c2)OCO3)C(=O)N[C@H]2COC(=O)[C@@H]3C[C@@H](C)CN3C(=O)[C@H](C)NC(=O)[C@@H]3CCCCN3C(=O)[C@@H]3CCCN3C2=O)c1 [Compound 23, (S)-2-(3-(BENZO[D][1,3]DIOXOL-5-YL)UREIDO)-N-((2R,6S,8AS,14AS,20S,23AS)-2,6-DIMETHYL-5,8,14,19,23-PENTAOXOOCTADECAHYDRO-1H,5H,14H,19H-PYRIDO[2,1-I]DIPYRROLO[2,1-C:2′,1′-L][1]OXA[4,7,10,13]TETRAAZACYCLOHEXADECIN-20-YL)-3-(M-TOLYL)PROPANAMIDE] | 96.9 ± 0.1 | 30.2 ± 11.7 h | – | – |
| Cc1cccc(C[C@H](NC(=O)Nc2ccc(Cl)cc2F)C(=O)N[C@@H]2C(=O)N3C[C@H](OC(=O)CCN(C)C)C[C@H]3C(=O)N3CCCC[C@H]3C(=O)N[C@@H](C)C(=O)N3C[C@H](C)C[C@H]3C(=O)O[C@H]2C)c1 [Compound 46, (2R,6S,8AS,14AS,16R,20S,21S,23AS)-20-((S)-2-(3-(4-CHLORO-2-FLUOROPHENYL)UREIDO)-3-(M-TOLYL)PROPANAMIDO)-2,6,21-TRIMETHYL-5,8,14,19,23-PENTAOXOOCTADECAHYDRO-1H,5H,14H,19H-PYRIDO[2,1-I]DIPYRROLO[2,1-C:2′,1′-L][1]OXA[4,7,10,13]TETRAAZACYCLOHEXADECIN-16-YL 3-(DIMETHYLAMINO)PROPANOATE] ({NH(4-Cl-2-F-phenyl)-CO}-[Phe(3-Me)][aThr][Hyp](Propanoyl(3-NMe2))[Pip]A[Pro(4R-Me)]; ester 2-C) | 93.0 ± 0.8 | 2.09 ± 0.14 h | – | – |
| CCc1ccc(NC(=O)N[C@@H](Cc2cccc(C)c2)C(=O)N[C@H]2COC(=O)[C@@H]3C[C@@H](C)CN3C(=O)[C@H](C)NC(=O)[C@@H]3CN(C)CCN3C(=O)[C@@H]3CCCN3C2=O)cc1 [Compound 16, (S)-2-(3-(4-ETHYLPHENYL)UREIDO)-3-(M-TOLYL)-N-((6AS,12S,15AS,17R,21S,23AS)-2,17,21-TRIMETHYL-6,11,15,20,23-PENTAOXOOCTADECAHYDRO-2H,6H,11H,15H-PYRAZINO[2,1-I]DIPYRROLO[2,1-C:2′,1′-L][1]OXA[4,7,10,13]TETRAAZACYCLOHEXADECIN-12-YL)PROPANAMIDE] ({NH(4-Et-phenyl)-CO}-[Phe(3-Me)]SP[Piperazine(2S-CO,4-Me)]A[Pro(4R-Me)]; ester 2-C) | 97.1 ± 0.1 | 0.86 ± 0.07 h | – | – |
| Cc1cccc(C[C@H](NC(=O)Nc2ccc(Cl)cc2F)C(=O)N[C@@H]2C(=O)N3CCC[C@H]3C(=O)N3CCN(C)C[C@H]3C(=O)N[C@@H](C)C(=O)N3C[C@H](C)C[C@H]3C(=O)O[C@H]2C)c1 [Compound 11, (S)-2-(3-(4-CHLORO-2-FLUOROPHENYL)UREIDO)-N-((6AS,12S,13S,15AS,17R,21S,23AS)-2,13,17,21-TETRAMETHYL-6,11,15,20,23-PENTAOXOOCTADECAHYDRO-2H,6H,11H,15H-PYRAZINO[2,1-I]DIPYRROLO[2,1-C:2′,1′-L][1]OXA[4,7,10,13]TETRAAZACYCLOHEXADECIN-12-YL)-3-(M-TOLYL)PROPANAMIDE] ({NH(4-Cl-2-F-phenyl)-CO}-[Phe(3-Me)][aThr]P[Piperazine(2S-CO,4-Me)]A[Pro(4R-Me)]; ester 2-C) | 98.8 ± 0.4 | 0.91 ± 0.10 h | – | – |
